The record followed here is ChEMBL document CHEMBL5550116, “Discovery of novel macrocyclic derivatives as potent and selective cyclin-dependent kinase 2 inhibitors” (Bioorg Med Chem, 2024).

Series [1] addresses Cyclin-dependent kinase 2/cyclin E1 (Homo sapiens, UniProt P24941). Description: Inhibition of full length N-terminal GST-tagged human CDK2 (1 to 298 residues)/cyclin E1 (1 to 410 residues) expressed in Sf21 cells using histone H1 as substrate preincubated for 10 mins followed by substrate and ATP addition and measured after 60 mins by ADP-Glo reagent based microplate reader assay.

Series [2] has as its target Cyclin-dependent kinase 5/CDK5 activator 1 (Homo sapiens, UniProt Q00535). Description: Inhibition of human CDK5/p25NCK using histone H1 as substrate preincubated for 10 mins followed by substrate and ATP addition and measured after 60 mins by ADP-Glo reagent based microplate reader assay. The class given is protein-complex assay. (In general: ADP-Glo first removes unused ATP, then detects ADP through luciferase.)

For series [3], the system named is MKN-1. Description: Antiproliferative activity against human MKN-1 cells incubated for 5 days by CCK-8 assay. The conditions noted are these: MKN-1, 120 h. The class given is functional, cell-based.
Series [4] can be described thus: Metabolic stability in mouse liver microsomes assessed as half life at 1 uM preincubated with compound for 10 mins followed by beta-NADPH addition measured upto 60 mins by LC-MS/MS analysis. Format: ADME, Microsome. The conditions noted are these: time < 70 min.
In series [5] the target is CDK7/Cyclin H/MNAT1 (Homo sapiens, UniProt P50613). Description: Inhibition of recombinant human His-tagged CDK7/cyclin H/MNAT1 expressed in baculovirus expression system using histone H1 as substrate preincubated for 10 mins followed by substrate and ATP addition and measured after 60 mins by ADP-Glo reagent based microplate reader assay.
Series [6] has as its target CDK9/cyclin T1 (Homo sapiens, UniProt P50750). Description: Inhibition of full-length recombinant N-terminal GST-tagged human CDK9 (1 to 372 residues)/His-tagged cyclinT1 (1 to 726 residues) expressed in baculovirus expression system using histone H1 as substrate preincubated for 10 mins followed by substrate and ATP addition and measured after 60 mins by ADP-Glo reagent based microplate reader assay.

A short description of series [7]: Metabolic stability in human liver microsomes assessed as half life at 1 uM preincubated with compound for 10 mins followed by beta-NADPH addition measured upto 60 mins by LC-MS/MS analysis. The class given is ADME, Microsome. The conditions noted are these: time < 70 min. In general terms: Liver microsomes are vesicles of endoplasmic reticulum, rich in cytochrome P450 enzymes.

Series [8] can be described thus: Drug uptake in CD1 mouse plasma at 10 mg/kg, po measured upto 24 hrs by LC-MS/MS analysis. The note with it: in vivo. The class given is ADME, organism-based.
A short description of series [9]: Clearance in CD1 mouse plasma at 1 mg/kg, iv measured upto 24 hrs by LC-MS/MS analysis. Format: ADME, organism-based.
For series [10], the system named is MKN-1. Description: Induction of cell cycle arrest in human MKN-1 cells assessed as accumulation of cells at G0/G1 phase at 111.1 to 333.3 nM incubated for 24 hrs by PI staining based flow cytometry analysis. The note with it: dose 111.1-333.3 nM. The class given is functional. In general terms: Flow cytometry measures light scatter and fluorescence of single cells or particles in a stream.

In series [11] the test system is MKN-1. Description: Induction of cell cycle arrest in human MKN-1 cells assessed as reduction in G2/M phase cells at 111.1 to 333.3 nM incubated for 24 hrs by PI staining based flow cytometry analysis. The note with it: dose 111.1-333.3 nM. Format: functional.
The target in series [12] is Cyclin-dependent kinase 2 (Homo sapiens) (UniProt P24941). Description: Inhibition of CDK2 in human MKN-1 cells assessed as reduction in Rb phosphorylation at Ser807/11 incubated for 24 hrs by Western blotting analysis. The class given is cell-based. The conditions noted are these: dose 37-3000 nM.
Series [13] has the same target. Description: Inhibition of CDK2 in human MKN-1 cells assessed as reduction in Rb phosphorylation at Ser780 incubated for 24 hrs by Western blotting analysis. Format: cell-based. The note with it: dose 37-3000 nM.
In series [14] the target is Cyclin-dependent kinase 1 (Homo sapiens) (UniProt P06493). Description: Inhibition of CDK1 (unknown origin) at 1 uM.
The target in series [15] is Cyclin-dependent kinase 5 (Homo sapiens) (UniProt Q00535). Description: Inhibition of CDK5 (unknown origin) at 1 uM.
Series [16] has as its target Cyclin-dependent kinase 7 (Homo sapiens) (UniProt P50613). Description: Inhibition of CDK7 (unknown origin) at 1 uM.
The target in series [17] is Cyclin-dependent kinase 9 (Homo sapiens) (UniProt P50750). Description: Inhibition of CDK9 (unknown origin) at 1 uM.
Series [18] concerns the target Cyclin-dependent kinase 12 (Homo sapiens) (UniProt Q9NYV4). Description: Inhibition of CDK12 (unknown origin) at 1 uM.
In series [19] the target is Cyclin-dependent kinase 13 (Homo sapiens) (UniProt Q14004). Description: Inhibition of CDK13 (unknown origin) at 1 uM.
For series [20], the species on record is Homo sapiens. Description: Inhibition of CDK1/cyclin A2 (unknown origin) at 100 nM by ADP-Glo assay.
The target of series [21] is CDK12/Cyclin K (Homo sapiens) (UniProt O75909+Q9NYV4). Description: Inhibition of CDK12/Cyclin K (unknown origin) at 100 nM by HTRF assay. The class given is protein-complex assay.

Activity calls are given as the source filed them. The rule behind the calls is not given here.

Sequence of CDK7/Cyclin H/MNAT1 (P51946 whole entry, the tested form may be a part): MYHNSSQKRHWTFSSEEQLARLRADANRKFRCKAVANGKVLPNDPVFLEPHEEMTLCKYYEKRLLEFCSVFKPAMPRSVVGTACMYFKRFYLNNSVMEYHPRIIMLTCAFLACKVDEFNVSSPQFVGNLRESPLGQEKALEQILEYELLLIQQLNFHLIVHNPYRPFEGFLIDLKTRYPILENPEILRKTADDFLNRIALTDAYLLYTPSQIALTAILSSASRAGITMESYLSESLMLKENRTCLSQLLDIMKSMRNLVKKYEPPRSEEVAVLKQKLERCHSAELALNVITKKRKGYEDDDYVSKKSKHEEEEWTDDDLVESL
Sequence of CDK7/Cyclin H/MNAT1 (P50613 whole entry, the tested form may be a part): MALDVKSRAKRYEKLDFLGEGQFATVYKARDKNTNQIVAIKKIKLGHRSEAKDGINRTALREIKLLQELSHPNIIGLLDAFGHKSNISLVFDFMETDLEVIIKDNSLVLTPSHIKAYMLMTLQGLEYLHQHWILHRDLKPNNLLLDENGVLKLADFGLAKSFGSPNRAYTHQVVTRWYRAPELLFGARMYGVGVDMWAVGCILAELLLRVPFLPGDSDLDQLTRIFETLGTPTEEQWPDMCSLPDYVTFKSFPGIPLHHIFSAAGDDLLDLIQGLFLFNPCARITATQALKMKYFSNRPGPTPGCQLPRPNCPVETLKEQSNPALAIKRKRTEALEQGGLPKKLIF
Sequence of CDK7/Cyclin H/MNAT1 (P51948 whole entry, further chain, the tested form may be a part): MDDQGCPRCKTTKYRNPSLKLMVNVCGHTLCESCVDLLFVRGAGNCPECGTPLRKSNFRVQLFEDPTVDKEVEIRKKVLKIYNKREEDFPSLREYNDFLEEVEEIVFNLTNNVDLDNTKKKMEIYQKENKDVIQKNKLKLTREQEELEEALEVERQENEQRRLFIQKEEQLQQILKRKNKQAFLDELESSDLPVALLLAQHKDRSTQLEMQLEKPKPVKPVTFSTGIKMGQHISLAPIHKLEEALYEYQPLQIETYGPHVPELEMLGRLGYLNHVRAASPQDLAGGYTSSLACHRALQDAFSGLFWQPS
Sequence of Cyclin-dependent kinase 5/CDK5 activator 1 (Q00535 whole entry): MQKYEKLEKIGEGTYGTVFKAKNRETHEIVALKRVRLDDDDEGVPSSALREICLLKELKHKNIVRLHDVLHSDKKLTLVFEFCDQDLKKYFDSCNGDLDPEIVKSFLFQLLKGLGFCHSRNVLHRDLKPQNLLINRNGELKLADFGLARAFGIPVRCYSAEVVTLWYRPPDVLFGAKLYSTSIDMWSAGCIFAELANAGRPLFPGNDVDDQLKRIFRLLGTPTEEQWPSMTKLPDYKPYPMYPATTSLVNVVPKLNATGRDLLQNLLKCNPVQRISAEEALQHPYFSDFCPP
Sequence of Cyclin-dependent kinase 5/CDK5 activator 1 (Q15078 whole entry, further chain): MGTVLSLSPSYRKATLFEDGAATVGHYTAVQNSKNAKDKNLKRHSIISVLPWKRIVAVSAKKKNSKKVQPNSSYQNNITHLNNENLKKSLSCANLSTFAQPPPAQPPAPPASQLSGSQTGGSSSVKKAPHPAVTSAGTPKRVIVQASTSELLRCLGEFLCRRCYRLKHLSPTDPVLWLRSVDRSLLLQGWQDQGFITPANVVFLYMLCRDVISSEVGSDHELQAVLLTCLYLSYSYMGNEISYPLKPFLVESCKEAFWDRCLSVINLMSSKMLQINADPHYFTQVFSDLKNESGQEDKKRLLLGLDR
Sequence of CDK9/cyclin T1 (O60563 whole entry, the tested form may be a part): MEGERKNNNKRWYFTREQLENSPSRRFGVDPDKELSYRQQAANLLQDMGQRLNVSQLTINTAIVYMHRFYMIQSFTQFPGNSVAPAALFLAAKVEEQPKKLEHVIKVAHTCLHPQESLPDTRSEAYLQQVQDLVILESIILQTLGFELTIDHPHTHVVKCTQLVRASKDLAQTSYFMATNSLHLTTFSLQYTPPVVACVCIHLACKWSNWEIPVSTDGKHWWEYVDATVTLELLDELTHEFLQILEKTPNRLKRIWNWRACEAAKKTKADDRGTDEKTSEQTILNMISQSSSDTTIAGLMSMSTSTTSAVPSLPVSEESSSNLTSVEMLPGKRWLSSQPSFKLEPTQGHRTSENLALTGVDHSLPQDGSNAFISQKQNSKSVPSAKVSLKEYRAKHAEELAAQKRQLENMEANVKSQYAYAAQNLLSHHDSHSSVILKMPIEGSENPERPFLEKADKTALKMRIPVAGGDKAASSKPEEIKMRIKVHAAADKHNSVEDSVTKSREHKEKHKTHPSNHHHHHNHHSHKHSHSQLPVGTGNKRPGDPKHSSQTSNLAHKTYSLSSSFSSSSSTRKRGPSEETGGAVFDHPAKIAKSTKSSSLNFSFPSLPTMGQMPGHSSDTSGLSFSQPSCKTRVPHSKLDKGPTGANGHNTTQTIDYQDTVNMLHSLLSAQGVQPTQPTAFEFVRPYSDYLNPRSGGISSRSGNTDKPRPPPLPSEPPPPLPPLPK
Sequence of CDK9/cyclin T1 (P50750 whole entry, the tested form may be a part): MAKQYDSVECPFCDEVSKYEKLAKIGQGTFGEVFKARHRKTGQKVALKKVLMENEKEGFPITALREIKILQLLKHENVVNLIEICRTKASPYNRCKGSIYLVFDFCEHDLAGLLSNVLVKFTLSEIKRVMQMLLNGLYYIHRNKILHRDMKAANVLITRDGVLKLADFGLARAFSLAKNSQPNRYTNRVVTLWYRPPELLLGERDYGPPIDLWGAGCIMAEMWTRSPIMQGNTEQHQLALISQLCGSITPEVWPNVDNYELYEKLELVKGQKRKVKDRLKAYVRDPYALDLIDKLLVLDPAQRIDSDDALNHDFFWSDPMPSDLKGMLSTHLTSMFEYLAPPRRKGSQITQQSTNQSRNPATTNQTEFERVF
Sequence of Cyclin-dependent kinase 9 (Homo sapiens) (P50750 whole entry): as the sequence (P50750 whole entry, the tested form may be a part) above
Sequence of Cyclin-dependent kinase 7 (Homo sapiens) (P50613 whole entry): as the sequence (P50613 whole entry, the tested form may be a part) above
Sequence of Cyclin-dependent kinase 5 (Homo sapiens) (Q00535 whole entry, looked up): as the sequence (Q00535 whole entry) above
Sequence of Cyclin-dependent kinase 1 (Homo sapiens) (P06493 whole entry, looked up): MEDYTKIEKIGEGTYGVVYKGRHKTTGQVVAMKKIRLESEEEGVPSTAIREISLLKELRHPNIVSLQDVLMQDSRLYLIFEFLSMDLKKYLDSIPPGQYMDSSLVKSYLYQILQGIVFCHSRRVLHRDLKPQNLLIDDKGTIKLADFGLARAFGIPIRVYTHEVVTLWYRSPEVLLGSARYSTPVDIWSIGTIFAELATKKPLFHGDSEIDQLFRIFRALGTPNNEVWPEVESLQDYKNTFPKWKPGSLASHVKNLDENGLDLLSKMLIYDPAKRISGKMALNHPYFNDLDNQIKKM
Sequence of Cyclin-dependent kinase 12 (Homo sapiens) (Q9NYV4 whole entry, looked up): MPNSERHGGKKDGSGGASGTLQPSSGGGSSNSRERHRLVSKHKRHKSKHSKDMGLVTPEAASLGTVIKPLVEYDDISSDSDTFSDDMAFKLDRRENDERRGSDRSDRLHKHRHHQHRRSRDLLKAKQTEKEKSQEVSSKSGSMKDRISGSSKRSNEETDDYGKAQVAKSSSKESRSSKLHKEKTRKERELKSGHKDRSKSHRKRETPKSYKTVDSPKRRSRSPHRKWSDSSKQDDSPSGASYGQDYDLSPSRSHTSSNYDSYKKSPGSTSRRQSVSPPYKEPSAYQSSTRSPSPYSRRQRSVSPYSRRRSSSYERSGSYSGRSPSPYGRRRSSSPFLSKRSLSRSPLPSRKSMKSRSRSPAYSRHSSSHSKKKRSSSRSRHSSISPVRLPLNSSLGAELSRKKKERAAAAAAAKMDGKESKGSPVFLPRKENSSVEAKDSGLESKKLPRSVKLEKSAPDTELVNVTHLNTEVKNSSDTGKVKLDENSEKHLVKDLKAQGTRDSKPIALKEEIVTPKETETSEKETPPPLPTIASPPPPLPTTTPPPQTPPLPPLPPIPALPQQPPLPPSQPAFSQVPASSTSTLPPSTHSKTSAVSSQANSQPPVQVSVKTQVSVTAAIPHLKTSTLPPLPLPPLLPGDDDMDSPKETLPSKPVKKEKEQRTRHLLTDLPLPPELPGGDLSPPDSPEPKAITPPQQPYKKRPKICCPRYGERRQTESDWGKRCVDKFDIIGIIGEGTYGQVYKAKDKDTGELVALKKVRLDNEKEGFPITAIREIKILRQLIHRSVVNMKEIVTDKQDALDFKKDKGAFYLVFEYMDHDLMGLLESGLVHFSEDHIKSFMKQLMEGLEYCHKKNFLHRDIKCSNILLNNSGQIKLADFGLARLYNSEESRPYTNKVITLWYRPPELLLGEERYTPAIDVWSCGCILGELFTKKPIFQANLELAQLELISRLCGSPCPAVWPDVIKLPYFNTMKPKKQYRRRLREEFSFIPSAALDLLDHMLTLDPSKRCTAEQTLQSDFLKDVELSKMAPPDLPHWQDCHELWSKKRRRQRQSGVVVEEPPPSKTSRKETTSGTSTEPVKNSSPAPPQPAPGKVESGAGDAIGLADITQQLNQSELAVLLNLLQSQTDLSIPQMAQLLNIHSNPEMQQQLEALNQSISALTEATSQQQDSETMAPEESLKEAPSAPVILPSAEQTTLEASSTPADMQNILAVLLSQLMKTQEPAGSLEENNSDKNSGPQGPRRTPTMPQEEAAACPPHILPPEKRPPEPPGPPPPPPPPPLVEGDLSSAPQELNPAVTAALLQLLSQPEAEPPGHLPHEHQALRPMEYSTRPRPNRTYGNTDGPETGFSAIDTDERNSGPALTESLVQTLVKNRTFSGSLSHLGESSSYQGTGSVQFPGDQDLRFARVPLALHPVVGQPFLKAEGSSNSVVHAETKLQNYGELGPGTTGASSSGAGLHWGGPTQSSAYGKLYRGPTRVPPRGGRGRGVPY

In general, Ki refers to a dissociation constant, usually derived from enzyme kinetics or from competition with a known ligand. Regarding `CC(C)c1cnn2c3nc(nc12)N(CC(C)(C)CN)CCCCCOc1ccccc1CN3`, the figures for the inhibition constant (Ki) in series [1] and in series [2] were 49.6 nM and 60.3 nM, respectively.
In general, EC50 refers to the midpoint of the concentration-response curve. The low end stands for greater potency, the high end for weaker potency. What is called half-life is the time in which the quantity being followed falls by half. For the molecule `CC(C)c1cnn2c3nc(nc12)N(CC1CNC1)CCCCCOc1ccc(F)cc1CN3`, in series [1], the Ki was 1 nM. The EC50 in series [3] is 940 nM. Moreover, the half-life at 1 µM in [4] was 15.2 min.
`CC(C)c1cnn2c3nc(nc12)N(CC1CCCNC1)CCCCCOc1ccccc1CN3` (configuration not stated): the values for the Ki in series [1] and in series [2] were 46.1 nM and 140 nM, respectively.
Taken in the same sequence, the figures for `CC(C)c1cnn2c3nc(nc12)N(CC1CCNCC1)CCCCCOc1ccc(F)cc1CN3` were 3.1 nM and 2.5 nM.
In [1], `CC(C)c1cnn2c3nc(nc12)N(CC1CNC1)CCCCCOc1cc(F)c(F)cc1CN3` returned a Ki of 3.4 nM. The molecule also gave an EC50 in series [3] of 1460 nM. For the same molecule, the half-life at 1 µM in series [4] turned out to be 22 min.
As to `CC(C)c1cnn2c3nc(nc12)N(CCC1CNC1)CCCCCOc1cc(S(C)(=O)=O)ccc1CN3`, the Ki in [1] is 35.3 nM.
On to `CC(C)c1cnn2c3nc(nc12)N(CC1CCN(C)CC1)CCCCCOc1ccccc1CN3`, for which the Ki in series [1] was 2.7 nM; in [2], 1 nM; in series [5] it was 60.2 nM; in [6], 16.3 nM.
The molecule `CC(C)c1cnn2c3nc(nc12)N(CC1CNC1)CCCCCOc1cc(C(F)(F)F)ccc1CN3` returned an inhibition constant (Ki) in [1] of 15.4 nM.
In the case of `CC(C)c1cnn2c3nc(nc12)N(C[C@@H]1CNC[C@H]1O)CCCCCOc1ccccc1CN3`, the Ki in [1] amounted to 0.7 nM; in series [2] it was 0.9 nM; in series [5] it was 2.8 nM.
In the case of `CC(C)c1cnn2c3nc(nc12)N(CC1CNC1)CCCCCOc1ccccc1CN3`, the inhibition constant Ki in [1] amounted to 3 nM; in series [2] it was 30.7 nM; in series [5] it was 101 nM; in series [6], 60 nM. In [3], this molecule registered a half-maximal effective concentration (EC50) of 3400 nM. The half-life at 1 µM stood at 61.9 min in [4] and 36.1 min in [7].
Take `CC(C)c1cnn2c3nc(nc12)N(C1CNC1)CCCCCOc1ccccc1CN3`: affinity in series [1] was put at a Ki of 158 nM.
In the case of `CC(C)c1cnn2c3nc(nc12)N(CC1CCNCC1)CCCCCOc1cc(F)c(F)cc1CN3`, the results for the inhibition constant (Ki) in series [1] and in [2] were 2.9 nM and 4.4 nM, respectively.
For `CC(C)c1cnn2c3nc(nc12)N(CC1CNC1)CCCCCOc1ccc(C#N)cc1CN3`, the inhibition constant Ki in series [1] was > 1000 nM.
The same measure, in the same setting: as for `CC(C)c1cnn2c3nc(nc12)N(CC1CCNCC1)CCCCCOc1ccc(C(F)(F)F)cc1CN3`, the figure is 92.3 nM.
For orientation: clearance means a measure of how efficiently the substance is removed, as volume per time. The low end stands for a low capacity for elimination, the high end for a high capacity for elimination. In turn, `CC(C)n1cnc2c3nc(nc21)N(CC1CNC1)CCCCCOc1cc(S(C)(=O)=O)ccc1CN3` had a Ki in series [1] of 3.6 nM. Besides, the midpoint of the response in series [3], the EC50, lay at 740 nM. Besides, the half-life at 1 µM in [4] is 6.3 min; in series [7] it was 46.2 min. For the same molecule, the Drug uptake entry in series [8] is listed as “Not Active”. The clearance in series [9] was found to be 159 mL/min/kg. The result in series [10] and in series [11] was Active. Further, the inhibition result in [12] and in series [13] was “Dose-Dependent Effect” in each case.
Consider `CC(C)c1cnn2c3nc(nc12)N(CC1CNC1)CCCCCOc1ccc(C(F)(F)F)cc1CN3`, for which, in series [1], the Ki was > 1000 nM.
With `CC(C)c1cnn2c3nc(nc12)N(CC1CCNCC1)CCCCCOc1cc(C(F)(F)F)ccc1CN3`, the Ki in [1] was found to be 15.1 nM; in series [2], 42.1 nM; in [5], 161 nM; in [6], 43.3 nM.
For `CC(C)c1cnn2c3nc(nc12)N(CC1CCNC1)CCCCCOc1ccccc1CN3` (configuration not stated), the Ki came out at 1 nM in series [1], 3.6 nM in series [2] and 9.5 nM in [5].
In series [1], `CC(C)c1cnn2c3nc(nc12)N(CC1CNC1)CCCCCOc1cc(S(C)(=O)=O)ccc1CN3` displayed a Ki of 1 nM. In addition, the EC50 in series [3] turned out to be 310 nM. In addition, the half-life at 1 µM in series [4] stood at 112 min; in [7] it was 122 min. The inhibition entry in series [14], in series [15], in series [16], in series [17], in series [18] and in [19] was “Active” in each case. Moreover, the inhibition entry in series [20] and in [21] was “Active” each time. In [8], the Drug uptake result is reported as “Not Active”. This molecule also came in with a clearance in series [9] of 159 mL/min/kg. The result in series [10] and in series [11] was Active. Also, the inhibition entry in series [12] and in series [13] was “Dose-Dependent Effect” in each case.
For `CC(C)c1cnn2c3nc(nc12)N(CCC1CNC1)CCCCCOc1ccccc1CN3`, the inhibitory constant (Ki) turned out to be 48.4 nM in series [1] and 28.7 nM in series [2].
`CC(C)c1cnn2c3nc(nc12)N(CC1CNC1)CCCCCOc1cc(C#N)ccc1CN3` yielded a Ki in series [1] of 35.8 nM.
Still for that read-out and setting: the result for `CC(C)c1cnn2c3nc(nc12)N(CC1CCNCC1)CCCCCOc1ccc(S(C)(=O)=O)cc1CN3` reads 83.2 nM.
For the molecule `CC(C)c1cnn2c3nc(nc12)N(CC1CCNCC1)CCCCCOc1cc(S(C)(=O)=O)ccc1CN3`, the Ki in series [1] amounted to 4.9 nM; in series [2], 2.4 nM; in [5], 21.3 nM; in series [6], 2.7 nM.
`CC(C)c1cnn2c3nc(nc12)N(CC1CCNCC1)CCCCCOc1cc(C#N)ccc1CN3`: the Ki amounted to 9.4 nM in [1], 4.4 nM in series [2], 43.4 nM in series [5] and 5.8 nM in series [6].
For `CC(C)c1cnn2c3nc(nc12)N(CC1CCOCC1)CCCCCOc1ccccc1CN3`, the inhibition constant Ki in [1] stood at 426 nM.
